Measured values from PMC10401645 (ACS Chemical Neuroscience, 2023).
Where two headings read alike, the source gives them in different places.

Key:
[1] = target: T1, 5-HT2A (Homo sapiens, UniProt P28223); assay: NanoBiT βarr2 recruitment assay at 5-HT2A; details: 2 h AUC; for EC50: β-arrestin2 EC50 (nM) (95% CI)
Target sequence in this assay (P28223 whole entry): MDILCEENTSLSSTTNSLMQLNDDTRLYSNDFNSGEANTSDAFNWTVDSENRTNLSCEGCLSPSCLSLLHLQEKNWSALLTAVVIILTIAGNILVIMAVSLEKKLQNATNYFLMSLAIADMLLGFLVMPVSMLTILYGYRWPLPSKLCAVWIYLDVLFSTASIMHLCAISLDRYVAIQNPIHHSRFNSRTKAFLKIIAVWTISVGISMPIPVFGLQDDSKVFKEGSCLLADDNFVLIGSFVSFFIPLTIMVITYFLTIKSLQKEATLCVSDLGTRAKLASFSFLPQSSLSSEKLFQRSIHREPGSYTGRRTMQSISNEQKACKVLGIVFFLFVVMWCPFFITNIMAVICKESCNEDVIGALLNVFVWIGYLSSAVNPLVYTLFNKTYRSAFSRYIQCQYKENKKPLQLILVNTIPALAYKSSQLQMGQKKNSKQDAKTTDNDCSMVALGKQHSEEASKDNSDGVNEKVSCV
Target sequence in this assay (P32121 whole entry partner): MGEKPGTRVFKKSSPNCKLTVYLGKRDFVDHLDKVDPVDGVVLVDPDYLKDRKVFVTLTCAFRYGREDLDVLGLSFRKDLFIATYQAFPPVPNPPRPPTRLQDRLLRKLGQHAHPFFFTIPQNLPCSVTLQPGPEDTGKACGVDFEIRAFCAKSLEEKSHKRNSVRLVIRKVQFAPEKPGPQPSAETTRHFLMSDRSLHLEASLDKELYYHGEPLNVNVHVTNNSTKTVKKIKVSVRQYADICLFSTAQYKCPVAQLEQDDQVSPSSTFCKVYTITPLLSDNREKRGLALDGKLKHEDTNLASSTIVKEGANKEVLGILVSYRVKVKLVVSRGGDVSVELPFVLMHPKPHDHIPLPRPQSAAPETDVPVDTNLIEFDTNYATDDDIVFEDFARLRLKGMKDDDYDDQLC

[2] = target: T1, 5-HT2A; assay: NanoBiT miniGαq recruitment assay at 5-HT2A; details: 2 h AUC; for EC50: LSD as reference agonist
Target sequence in this assay (P28223 whole entry): as the sequence (P28223 whole entry) above

[3] = test system: 5-HT2A receptor; assay: Bias factor; details: LSD as reference agonist, 2 h AUC; positive = βarr2 preference
[4] = target: T1, 5-HT2A; details: PI hydrolysis assay; cited from earlier work
Target sequence in this assay (P28223 whole entry, species assumed): as the sequence (P28223 whole entry) above
Target sequence in this assay (P32121 whole entry partner, species assumed): as the sequence (P32121 whole entry partner) above

SMILES | EC50 ([1]; LSD as reference agonist) [nM] | EC50 ([2]; miniGαq EC50 (nM) (95% CI)) | β (bias factor) [3] | β-arrestin2 EC50 (nM) (95% CI) ([1]; LSD as reference agonist) | β-arrestin2 Emax (%) (95% CI) ([1]; normalized to Emax of LSD) | miniGαq Emax (%) (95% CI) ([2]; normalized to Emax of LSD) | EC50 ([2]; miniGαq pEC50 (95% CI)) [nM] | EC50 [4]
COc1cc(SC)c(OC)cc1CCN.Cl [2C-T (1e), 2-(2,5-Dimethoxy-4-(methylthio)phenyl)ethan-1-amine Hydrochloride] | 13.1 | 37.1 | 0.343 | – | – | – | – | –
CCCSc1cc(OC)c(CCNCc2ccccc2O)cc1OC.Cl [25T7-NBOH (2c), 2-(((2,5-Dimethoxy-4-(propylthio)phenethyl)amino)methyl)phenol Hydrochloride] | 13.9 | 17.5 | 0.209 | – | – | – | – | –
COc1cc([N+](=O)[O-])c(OC)cc1CCNCc1ccccc1O.Cl [25N-NBOH (2e), 2-(((2,5-Dimethoxy-4-nitrophenethyl)amino)methyl)phenol Hydrochloride] | 0.662 | 1.73 | 0.454 | sub-nanomolar | – | – | – | –
CCN(CC)C(=O)[C@@H]1C=C2c3cccc4[nH]cc(c34)C[C@H]2N(C)C1 [LSD, lysergic acid diethylamide, reference compound] | – | – | 0 | – | 99.4 (92.5–106) % | 98.4 (90.4–107) % | – | –
NCCc1c[nH]c2ccc(O)cc12 [5-HT, 5-hydroxytryptamine, reference compound] | – | – | 0.680 | – | – | – | – | –
CCCc1cc(OC)c(CCN)cc1OC.Cl [2C-P (1c), 2-(2,5-Dimethoxy-4-propylphenyl)ethan-1-amine Hydrochloride] | 10.2 | 37.6 | 0.313 | – | – | – | 37.2 | –
COc1cc([N+](=O)[O-])c(OC)cc1CCNCc1ccccc1F.Cl [25N-NBF (2g), 2-(2,5-Dimethoxy-4-nitrophenyl)-N-(2-fluorobenzyl)ethan-1-amine Hydrochloride] | 14.2 | 74.7 | 0.858 | – | – | – | – | –
CCCSc1cc(OC)c(CCN)cc1OC.Cl [2C-T-7 (1f), 2-(2,5-Dimethoxy-4-(propylthio)phenyl)ethan-1-amine Hydrochloride] | 4.99 | 14.3 | 0.291 | – | – | – | 14.1 | –
CCCSc1cc(OC)c(CCNCc2ccccc2OC)cc1OC.Cl [25T7-NBOMe (2d), 2-(2,5-Dimethoxy-4-(propylthio)phenyl)-N-(2-methoxybenzyl)ethan-1-amine Hydrochloride] | 7.42 | 11.3 | 0.281 | – | – | – | – | –
CCOCc1cc(OC)c(CCN)cc1OC.Cl [1d, 2-(4-(Ethoxymethyl)-2,5-dimethoxyphenyl)ethan-1-amine Hydrochloride] | 26.4 | 75 | 0.323 | – | – | – | – | –
COc1cc(SC)c(OC)cc1CCNCc1ccccc1OC.Cl [25T-NBOMe (2b), 2-(2,5-Dimethoxy-4-(methylthio)phenyl)-N-(2-methoxybenzyl)ethan-1-amine Hydrochloride] | 2.05 | 4.22 | 0.332 | – | – | – | – | –
COc1cc(SC)c(OC)cc1CC(C)N.Cl (centres unmarked) [DOT (1h), 1-(2,5-Dimethoxy-4-(methylthio)phenyl)propan-2-amine Hydrochloride] | 14.5 | 65.8 | 0.436 | – | – | – | – | –
COc1cc(CCN)c(OC)cc1C.Cl [2C-D (1b), 2-(2,5-Dimethoxy-4-methylphenyl)ethan-1-amine Hydrochloride] | 16.4 | 59.4 | 0.372 | – | – | – | – | –
COc1cc([N+](=O)[O-])c(OC)cc1CCNCc1ccccc1OC.Cl [25N-NBOMe (2f), 2-(2,5-Dimethoxy-4-nitrophenyl)-N-(2-methoxybenzyl)ethan-1-amine Hydrochloride] | 1.09 | 2.53 | 0.374 | – | – | – | – | sub-nanomolar
COc1cc(SC)c(OC)cc1CCNCc1ccccc1O.Cl [25T-NBOH (2a), 2-(((2,5-Dimethoxy-4-(methylthio)phenethyl)amino)methyl)phenol Hydrochloride] | 1.94 | 4.45 | 0.447 | – | – | – | – | –
COc1cc([N+](=O)[O-])c(OC)cc1CCN.Cl [2C-N (1g), 2-(2,5-Dimethoxy-4-nitrophenyl)ethan-1-amine Hydrochloride] | 32.2 | 92.5 | 0.305 | – | – | – | – | –
COc1cc(CCN)c(OC)cc1C#N.Cl [2C-CN (1j), 4-(2-Aminoethyl)-2,5-dimethoxybenzonitrile Hydrochloride] | 174 | 503 | 0.412 | – | – | – | – | –
COc1cc([N+](=O)[O-])c(OC)cc1CCNCc1cccc2c1OCO2.Cl [25N-NBMD (2h), N-(Benzo[d][1,3]dioxol-4-ylmethyl)-2-(2,5-dimethoxy-4-nitrophenyl)ethan-1-amine Hydrochloride] | 2 | 9.32 | 0.791 | – | – | – | – | –
CCCSc1cc(OC)c(CC(C)N)cc1OC.Cl (centres unmarked) [DOT-7 (1i), 1-(2,5-Dimethoxy-4-(propylthio)phenyl)propan-2-amine Hydrochloride] | 2.18 | 7.63 | 0.305 | – | – | – | – | –
